Laboratory results as given in US6380230B1, “Carboxamidothiazole derivatives, preparation, pharmaceutical compositions containing them” (Sanofi-Synthelabo, priority 1997, dated 2002).

Tests used:
[1] = tested on: Female Swiss albino CD1 mice; test: gastric drainage (charcoal meal) in mice, intraperitoneal administration; type: in vivo; settings: intraperitoneally
Experimental: The compounds of the present invention were also studied in vivo, by evaluating their capacity to block gastric drainage in mice.
A study of the agonist effect of the compounds on gastric drainage was carried out as follows. Female Swiss albino CD1 mice (20-25 g) are placed on a solid fast for 18 hours. On the day of the experiment, the products (as a suspension in 1% carboxymethyl cellulose solution or in 0.6% methylcellulose solution) or the corresponding vehicle are administered intraperitoneally, 30 minutes before administering a charcoal meal (0.3 ml per mouse of a suspension in water of 10% charcoal powder, 5% gum arabic and 1% carboxymethyl cellulose or 0.6% methyl cellulose). The mice are sacrificed five minutes later by cervical dislocation, and gastric drainage is defined as the presence of charcoal in the intestine beyond the pyloric sphincter (Eur. J. Pharmacol., 1993, 232, 13-19).

human CCK-A receptor [2] = molecular target: T1, human CCK-A receptor (Homo sapiens, UniProt P32238); test: mobilization of intracellular calcium ([Ca++]i, Fura-2) in 3T3 cells expressing the human CCK-A receptor; type: cell-based
T1 construct: expressed in transfected cells; host or cells: 3T3 cells
T1 sequence (P32238 1-428): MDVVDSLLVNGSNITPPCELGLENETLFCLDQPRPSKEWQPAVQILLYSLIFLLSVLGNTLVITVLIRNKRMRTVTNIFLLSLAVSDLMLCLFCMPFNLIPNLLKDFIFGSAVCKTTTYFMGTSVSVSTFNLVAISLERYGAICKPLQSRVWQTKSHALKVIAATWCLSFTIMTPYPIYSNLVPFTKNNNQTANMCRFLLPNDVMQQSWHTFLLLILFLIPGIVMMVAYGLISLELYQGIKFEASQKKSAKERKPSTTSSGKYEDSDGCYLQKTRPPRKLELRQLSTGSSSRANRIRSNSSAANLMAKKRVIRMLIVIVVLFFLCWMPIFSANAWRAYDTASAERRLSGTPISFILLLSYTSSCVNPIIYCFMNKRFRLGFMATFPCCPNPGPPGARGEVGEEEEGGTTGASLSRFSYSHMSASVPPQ
Experimental: The calcium concentration [Ca^++]i is evaluated with Fura-2 as fluorescent probe, by the double excitation wavelength method. The ratio of the fluorescence emitted at two wavelengths gives the concentration of [Ca^++]i after calibration (Grynkiewicz G. et al., J. Biol. Chem., 1985, 260, 3440-3450).

human CCK-B receptor = molecular target: T2, human CCK-B receptor (Homo sapiens, UniProt P32239); test: in vitro binding to the human CCK-B receptor; settings: read-out: affinity for the human CCK-B receptor (IC50)
T2 sequence (P32239 1-447): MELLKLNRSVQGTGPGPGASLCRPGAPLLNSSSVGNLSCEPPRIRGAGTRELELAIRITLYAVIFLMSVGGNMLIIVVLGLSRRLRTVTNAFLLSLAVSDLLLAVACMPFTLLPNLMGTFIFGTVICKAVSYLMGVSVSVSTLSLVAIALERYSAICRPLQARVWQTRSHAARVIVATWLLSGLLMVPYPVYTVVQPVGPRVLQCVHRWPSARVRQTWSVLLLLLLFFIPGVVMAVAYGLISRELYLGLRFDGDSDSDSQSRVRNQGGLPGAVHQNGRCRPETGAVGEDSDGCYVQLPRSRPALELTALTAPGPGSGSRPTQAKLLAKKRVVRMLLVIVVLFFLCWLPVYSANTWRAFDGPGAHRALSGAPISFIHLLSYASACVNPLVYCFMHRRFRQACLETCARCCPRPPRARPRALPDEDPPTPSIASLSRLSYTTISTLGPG

human CCK-A receptor [3] = molecular target: T1, human CCK-A receptor; test: displacement of [125I]-CCK from 3T3 cells expressing the human CCK-A recombinant receptor; type: binding; settings: read-out: affinity for the human CCK-A receptor (IC50)

With COc1cc(-c2nc(NC(=O)c3cc4cc(C)cc(C)c4n3CC(=O)O)sc2CCC2CCCCC2)c(OC)cc1Cl.O=C(O)C(F)(F)F [Example 5, 2-(4-(4-Chloro-2,5-dimethoxyphenyl)-5-(2-cyclohexylethyl)-2-thiazolylcarbamoyl)-5,7-dimethyl-1-indoleacetic acid trifluoroacetic acid.] the “ED50 on gastric drainage” value [1] was 1.9 µg/kg, the “effect on gastric drainage” value [1] was “completely inhibits gastric drainage” and the “agonist behaviour on intracellular calcium relative to CCK” value (human CCK-A receptor [2]; increase to the same level as CCK itself) was “total agonist”. It also gave an EC50 (human CCK-A receptor [2]; read-out: EC50 (effective concentration which induces 50% of the effect of CCK) for increase in intracellular calcium concentration, 3T3 cells expressing human CCK-A receptor) of 1.27 nM, an IC50 (human CCK-B receptor) of 162 nM and an IC50 (human CCK-A receptor [3]) of 0.56 nM.
